Laboratory results: ChEMBL document CHEMBL1201862, “PubChem BioAssay data set” (2004)
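Dose response: 5 concentrations. Exposure: 48 h. Format: 96-well plates. Endpoint: linear interpolation; highest concentration if not reached. Abbreviation: GI50, concentration required for 50% inhibition of growth.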 Calls of active or inactive are those of the source. Cut-off read from the data, not from the text of the source: active = GI50 up to about 1.1 µM and inactive = higher.

Experiments:
Experiment in all cases: NCI anticancer screen, dose series, 48 h
ACHN = system: ACHN
COLO 205 = system: COLO 205
DU-145 = system: DU-145
EKVX = system: EKVX
HL-60 = system: HL-60
MDA-MB-231 = system: MDA-MB-231
MOLT-4 = system: MOLT-4
Malme-3M = system: Malme-3M
NCI-H226 = system: NCI-H226
NCI-H522 = system: NCI-H522
NCI/ADR-RES = system: NCI/ADR-RES
OVCAR-3 = system: OVCAR-3
SF-295 = system: SF-295
SK-MEL-5 = system: SK-MEL-5
SN12C = system: SN12C
TK-10 = system: TK-10
UACC-62 = system: UACC-62
HOP-92 = system: HOP-92
KM12 = system: KM12

Structure (SMILES) | GI50 (ACHN) | GI50 (COLO 205) | GI50 (DU-145) | GI50 (EKVX) | GI50 (HL-60) | GI50 (MDA-MB-231) | GI50 (MOLT-4) | GI50 (Malme-3M) | GI50 (NCI-H226) | GI50 (NCI-H522) | GI50 (NCI/ADR-RES) | GI50 (OVCAR-3) | GI50 (SF-295) | GI50 (SK-MEL-5) | GI50 (SN12C) | GI50 (TK-10) | GI50 (UACC-62) | GI50 (HOP-92) | GI50 (KM12)
CNc1ccc(Cl)cc1S(=O)(=O)c1ccccc1[N+](=O)[O-] | > 100 µM (inactive) | > 100 µM (inactive) | > 100 µM (inactive) | > 100 µM (inactive) | > 100 µM (inactive) | > 100 µM (inactive) | > 100 µM (inactive) | > 100 µM (inactive) | > 100 µM (inactive) | > 100 µM (inactive) | > 100 µM (inactive) | > 100 µM (inactive) | > 100 µM (inactive) | 46.7 µM (inactive) | > 100 µM (inactive) | > 100 µM (inactive) | > 100 µM (inactive) | – | –
O=C(O)/C=C\C(=O)Nn1c(Cc2ccc(Cl)cc2)n[nH]c1=O | – | > 100 µM (inactive) | > 100 µM (inactive) | > 100 µM (inactive) | > 100 µM (inactive) | > 100 µM (inactive) | > 100 µM (inactive) | > 100 µM (inactive) | > 100 µM (inactive) | > 100 µM (inactive) | > 100 µM (inactive) | > 100 µM (inactive) | > 100 µM (inactive) | > 100 µM (inactive) | > 100 µM (inactive) | > 100 µM (inactive) | > 100 µM (inactive) | – | –
CSCCCS/C1=C/CCCCCCCCCC1 | > 100 µM (inactive) | > 100 µM (inactive) | > 100 µM (inactive) | > 100 µM (inactive) | > 100 µM (inactive) | > 100 µM (inactive) | > 100 µM (inactive) | > 100 µM (inactive) | > 100 µM (inactive) | – | > 100 µM (inactive) | > 100 µM (inactive) | > 100 µM (inactive) | > 100 µM (inactive) | > 100 µM (inactive) | > 100 µM (inactive) | > 100 µM (inactive) | > 100 µM (inactive) | > 100 µM (inactive)
O=C(CCc1ccccc1)On1c(-c2ccccc2)nc2ccccc2c1=S | 5.69 µM (inactive) | 4.28 µM (inactive) | 9.71 µM (inactive) | 6.78 µM (inactive) | 3.05 µM (inactive) | 51.5 µM (inactive) | 0.455 µM (active) | 3.61 µM (inactive) | 5.62 µM (inactive) | – | 4.08 µM (inactive) | 4.99 µM (inactive) | 3.99 µM (inactive) | 4.47 µM (inactive) | 11.9 µM (inactive) | 18.9 µM (inactive) | 3.94 µM (inactive) | 42.7 µM (inactive) | 3.87 µM (inactive)
COc1ccc(C2N(c3ccc(C)c(N=C=O)c3)C(=O)N3C(c4ccc(OC)cc4)N(c4ccc(C)c(N=C=O)c4)C(=O)N23)cc1 (stereo unspecified) | > 100 µM (inactive) | 62.4 µM (inactive) | > 100 µM (inactive) | > 100 µM (inactive) | > 100 µM (inactive) | > 100 µM (inactive) | > 100 µM (inactive) | 25.8 µM (inactive) | > 100 µM (inactive) | – | > 100 µM (inactive) | > 100 µM (inactive) | > 100 µM (inactive) | > 100 µM (inactive) | > 100 µM (inactive) | > 100 µM (inactive) | – | 83.2 µM (inactive) | > 100 µM (inactive)
CCCCn1c(C)c(C)c2c1NN=C(C#N)S2(=O)=O | > 100 µM (inactive) | > 100 µM (inactive) | > 100 µM (inactive) | > 100 µM (inactive) | – | > 100 µM (inactive) | > 100 µM (inactive) | > 100 µM (inactive) | – | 64.7 µM (inactive) | > 100 µM (inactive) | > 100 µM (inactive) | – | > 100 µM (inactive) | > 100 µM (inactive) | > 100 µM (inactive) | > 100 µM (inactive) | – | > 100 µM (inactive)
